Consider 6 compounds from patent US20120065165A1, “COMPOSITIONS AND METHODS OF TREATING ENDOTHELIAL DISORDERS” (ARGINETIX, INC, priority 2008, published 2012).

One data set deals with PDE1. The following applies: pulmonary vascular tissue; cited from earlier work.
The test system of data set [1] is arginase. The following applies: internal anal sphincter; cited from earlier work.
For data set [2], the system named is lambs with chemically induced PAH. The following applies: cited from earlier work.
In data set [3] the test system is patients with PAH. Particulars: oral administration; cited from earlier work.
Data set [4] deals with hypoxia-induced pulmonary hypertension. The following applies: cited from earlier work.
Data set [5] deals with patients with PAH. Particulars: three times daily; cited from earlier work.
The subject of another data set is rat aortic tissues. Description: cGMP levels in aortic rings of old rats incubated with sildenafil and ABH (cGMP EIA). The format is cell-based. Particulars: ABH 0 nM. The procedure: The source of tissue was old (22 to 24 months) male Fischer 344 rats purchased from National Institute for Aging (NIA). The rats were anesthetized in an isoflurane chamber and euthanized. The entire length of the aorta (thoracic, arch, abdominal) were dissected out and cleaned free of connective tissue. These aorta were then sectioned into ˜3 mm long rings. Samples were collected from 2 rats and pooled. […] Rings were incubated in varying concentrations of sildenafil (0-2000 nM) and ABH (0-500 nM) prepared in 200 μL Krebs buffer for 10 min at 37° C. The rings were then snap frozen in liquid nitrogen following treatment. The next day, samples were homogenized in 200 μL 6% TCA buffer (prepared by adding TCA to DI water) at 4° C. for extraction of cyclic nucleotides. The samples were then centrifuged at 12,000 rpm for 5 min at 4° C. Protein pellets were re-dissolved in PBS to determine protein concentration, and supernatant was reserved for cGMP detection. […] ABH (MW 211.45): A stock solution of ABH at a concentration of 100 mM was prepared by dissolving 21.1 mg of ABH into 1 ml Krebs solution. This was used to prepare 5 ml of a 1 mM stock. 200 μL of the 1 mM solution were dispensed into column 12 of a 96-well plate. Six 2× dilutions were prepared in the plate. 200 μL Krebs were dispensed in column 5 to get a concentration range of 0-1000 nM (2× of final concentration). Sildenafil (MW 474.5): A stock solution of sildenafil at a concentartion of 100 mM was prepared by dissolving 47.4 mg of sildenafil into 1 ml Krebs solution; 5 ml of 2 mM stock was prepared from this. Row A received 200 μL of Krebs buffer (0 mM sildenafil), mixed well, and adjusted to a final volume of 200 μL. Next, 200 μL of the 2 mM sildenafil stock was dispensed into row H of the 96 well plate already containing the ABH dilutions ([…]). Six 2× dilutions were prepared from this to get the final concentration ranges for the two drugs. cGMP levels were determined with a cGMP kit (Amersham cGMP Enzyme immunoassay Biotrak (EIA) System Cat #RPN226) and run in accordance with the manufacture's recommendations. The assay uses a competitive fluorescent immunoassay format to measure levels of cGMP. It combines the use of a peroxidase-labelled cGMP conjugate, a specific antiserum which can be immobilized on to pre-coated microplates, and a one-pot stabilized substrate solution. […] In the absence of cGMP most of the HRP conjugate is bound to the antibody and yields a high fluorescence. Increasing concentrations of cGMP competitively decreases the binding of the HRP conjugate, decreasing the measured fluorescence (HRP activity). […] The plate was then incubated for 2 hrs at room temperature with shaking after which it is washed and the fluorescent substrate is added. The plate was incubated for an additional 10 min and then read on a Molecular Devices Gemini EM plate reader set at Ex 530 nm, Em 590 nm (endpoint mode). The signal is reported to be stable for up to 24 hrs, but was generally read within 2 hrs. […] These values were calculated based on the resultant ratio of fluorescence reading of sample divided by fluorescense reading with no cGMP (pmols/mg). For each concentration combination of sildenafil and ABH administered to cells, absorbance (OD at 450 nm) was measured. From these values, the absorbance adjusted for non-specific binding (NSB) for each sample (OD-NSB(B)) was determined from the absorbance (B) divided by the absorbance without cGMP (Bo). Using this value and the standard curve for cGMP, the log (fmol) is found and, after adjusting for the quantity of protein, the pmols of cGMP/mg protein is calculated.

The subject of a further data set is old rat aortic segments. Description: NO production in aortic rings (slope of DAF fluorescence). The format is cell-based. The following applies: old/aged rat aorta. The text has this: ABH improves endothelial function by inhibiting arginase and consequently increasing NO production (by increasing L-arginine availability to eNOS) and decreasing levels of ROS (by preventing eNOS uncoupling). […] Aortic rings were dissected and pinned down, endothelial side up, on a silastic coated culture dish, and then exposed to either the NO-sensitive dye DAF, or the O2-sensitive dye DHE. Since the interaction of NO or ROS with its specific dye is cumulative, the rate of production of each species is proportional to the slope of the fluorescence emitted from the dye as measured using epifluorescence microscopy. […] SNP endothelial-independent NO donor was included as a control (Santhanam et al 2007).

Data set [6] has as its system arginase. Particulars: cited from earlier work.
For data set [7] the following is noted: in vivo; cited from earlier work.

The structures appear in SMILES notation. Read-outs that look alike come from different tables or passages of the source.

Take `CCOC(=O)C1=C[C@]2(CC)CCCN3CCc4c(n1c1ccccc41)[C@@H]32` [vinpocetine]: in the data set on PDE1, the NO-stimulated dilation result was “enhances” and the “basal cGMP or cAMP” value is “little effect”.
In the case of `N=C(NO)NCCC[C@H](N)C(=O)O` [L-HO-Arg, Nω-hydroxy-L-arginine], in the data set on arginase [1], the “NANC relaxation suppressed by excess arginase” value is on record as “restored”.
Turning to `CCCOc1ccccc1-c1nc2nn[nH]c2c(=O)[nH]1` [Zaprinast], the “pulmonary vasodilation induced by inhaled NO” value in [2] (lambs with chemically induced PAH) was “potentiates and markedly prolongs”.
As to `CCCc1nn(C)c2c(=O)[nH]c(-c3cc(S(=O)(=O)N4CCN(C)CC4)ccc3OCC)nc12` [sildenafil], in the data set on patients with PAH [3], the pulmonary vasodilation result is “selective pulmonary vasodilation”. In data set [2] (aerosolized form, lambs with PAH), the “pulmonary vasodilator response to inhaled NO” value was “augmented”. In addition, the hypoxia-induced pulmonary hypertension result in [4] (mice lacking NOS3 (eNOS)) was “little effect”; in data set [4] (mouse, in vivo), “substantially ablated”. For the same compound, in the data set with patients with PAH [5], the WHO functional class entry is given as “improved”. For the same compound, the “exercise capacity (6-minute walk test)” value with patients with PAH [5] was “improved”. Further, in the data set on patients with PAH [5], the pulmonary arterial pressure result is reported as “decreased”. Also, the pulmonary vascular resistance entry with patients with PAH [5] is reported as “decreased”. The “Theoretical response T(x,y) based on an additive effect” value is reported as 0.27 pmol/mg in the data set on rat aortic tissues (sildenafil 31 nM), 2.56 pmol/mg in the data set with rat aortic tissues (sildenafil 125 nM), 0.88 pmol/mg with rat aortic tissues (sildenafil 500 nM) and 0.80 pmol/mg with rat aortic tissues (sildenafil 2000 nM). The “pmols of cGMP/mg protein produced P(x,y)” value came out at 0.27 pmols/mg in the data set with rat aortic tissues (sildenafil 31 nM), 2.56 pmols/mg with rat aortic tissues (sildenafil 125 nM), 0.88 pmols/mg in the data set with rat aortic tissues (sildenafil 500 nM) and 0.80 pmols/mg in the data set on rat aortic tissues (sildenafil 2000 nM).
`N[C@@H](CSCCB(O)O)C(=O)O` [BEC, S-(2-Boronoethyl)-L-cysteine]: the “NO production (slope of the DAF fluorescence)” value in the data set on old rat aortic segments is reported as “augments NO production”.
Consider `N=C(NO)NCC[C@H](N)C(=O)O` [nor-NOHA, N^ω-hydroxy-nor-L-arginine], for which the “in vivo inhibition of serum arginase” value in the data set on arginase [6] was “inhibition of serum arginase”. In data set [7], the bioavailability result is “poor bioavailability”.
